Laboratory results: patent publication US9890147B2 (BAYER PHARMA AKTIENGESELLSCHAFT, priority 2012, dated 2018)

Tests used:
BRD4 (BD1) = target: T1, BRD4 (BD1) (Homo sapiens, UniProt O60885); assay: Binding assay BRD4/acetylated peptide H4 (TR-FRET protein-protein interaction assay)
T1 construct: with relatively long constructs also being possible, preferably amino acids 44-168; made in house; host or cells: E. coli
Summary of the method: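 Displacement of biotin-Ac-H4 peptide from His6-tagged BRD4(BD1), final usually 10 nM, read as Eu-streptavidin to anti-His-XL665 TR-FRET (665/620 nm). Compounds tested at 11 doses up to 20 μM in duplicate, pH 7.5 HEPES, 22 °C then 4 °C incubation; IC50 by 4-parameter regression.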

MOLM-13 cells = assay: Cell proliferation assay (alamarBlue), MOLM-13; type: cell-based; details: Homo sapiens, 96 hours incubation, inhibition of cell proliferation
Summary of the method: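 IC50 = concentration giving 50% growth inhibition relative to buffer-treated cells, after subtracting baseline fluorescence taken before dosing. Compound applied at 1E-5 to 1E-8 M for 96 h at 37 °C in RPMI1640 with 10% FCS; alamarBlue signal at 530/590 nm.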

Structure (SMILES) | IC50 (BRD4 (BD1)) [nM] | IC50 (MOLM-13 cells) [nM]
CNC(=O)N1N=C(c2ccc(-c3c(C)noc3C)cc2)c2cc(OC(F)(F)F)c(Cl)cc2C[C@H]1C [Example 156.2, (4R)-7-Chloro-1-[4-(3,5-dimethylisoxazol-4-yl)phenyl]-N,4-dimethyl-8-(trifluoromethoxy)-4,5-dihydro-3H-2,3-benzodiazepine-3-carboxamide] | 2240 | > 10000
CNC(=O)N1N=C(c2ccc(-c3c(C)noc3C)cc2)c2cc(Cl)c(OC)cc2C[C@@H]1C [Example 157.1, (4S)-8-chloro-1-[4-(3,5-dimethylisoxazol-4-yl)phenyl]-7-methoxy-N,4-dimethyl-4,5-dihydro-3H-2,3-benzodiazepine-3-carboxamide] | 130 | 120
CNC(=O)N1N=C(c2ccc(-c3c(C)noc3C)cc2)c2cc(Cl)c(OC)cc2C[C@H]1C [Example 157.2, (4R)-8-chloro-1-[4-(3,5-dimethylisoxazol-4-yl)phenyl]-7-methoxy-N,4-dimethyl-4,5-dihydro-3H-2,3-benzodiazepine-3-carboxamide] | 470 | 2190
CNC(=O)N1N=C(c2ccc(-c3c(C)noc3C)cc2)c2cc(OC)c(OC(F)F)cc2C[C@@H]1C [Example 162.1, (4S)-7-(difluoromethoxy)-1-[4-(3,5-dimethylisoxazol-4-yl)phenyl]-8-methoxy-N,4-dimethyl-4,5-dihydro-3H-2,3-benzodiazepine-3-carboxamide] | 100 | 210
CNC(=O)N1N=C(c2ccc(-c3c(C)noc3C)cc2)c2cc(OC)c(OC(F)F)cc2C[C@H]1C [Example 162.2, (4R)-7-(difluoromethoxy)-1-[4-(3,5-dimethylisoxazol-4-yl)phenyl]-8-methoxy-N,4-dimethyl-4,5-dihydro-3H-2,3-benzodiazepine-3-carboxamide] | 560 | 1680
CNC(=O)N1N=C(c2ccc(N3CCN(C)CC3)cc2)c2cc(OC)c(OC(F)F)cc2C[C@H]1C [Example 163.1, (4R)-7-(difluoromethoxy)-8-methoxy-N,4-dimethyl-1-[4-(4-methylpiperazin-1-yl)phenyl]-4,5-dihydro-3H-2,3-benzodiazepine-3-carboxamide] | 8940 | 7080
CNC(=O)N1N=C(c2ccc(N3CCN(C)CC3)cc2)c2cc(OC)c(OC(F)F)cc2C[C@@H]1C [Example 163.2, (4S)-7-(difluoromethoxy)-8-methoxy-N,4-dimethyl-1-[4-(4-methylpiperazin-1-yl)phenyl]-4,5-dihydro-3H-2,3-benzodiazepine-3-carboxamide] | 30 | 260
CNC(=O)N1N=C(c2ccc(Cl)cc2)c2cc(OCCCN3CCN(C)CC3)ccc2C[C@@H]1C [Example 164.2, (4S)-1-(4-chlorophenyl)-N,4-dimethyl-8-[3-(4-methylpiperazin-1-yl)propoxy]-4,5-dihydro-3H-2,3-benzodiazepine-3-carboxamide] | 60 | 420
CNC(=O)N1N=C(c2ccc(-c3c(C)noc3C)cc2)c2cc(N3CCOCC3)ccc2C[C@H]1C [Example 176.1, (4R)-1-[4-(3,5-Dimethylisoxazol-4-yl)phenyl]-N,4-dimethyl-8-(morpholin-4-yl)-4,5-dihydro-3H-2,3-benzodiazepine-3-carboxamide] | 730 | 2190
CNC(=O)N1N=C(c2ccc(-c3c(C)noc3C)cc2)c2cc(N3CCOCC3)ccc2C[C@@H]1C [Example 176.2, (4S)-1-[4-(3,5-Dimethylisoxazol-4-yl)phenyl]-N,4-dimethyl-8-(morpholin-4-yl)-4,5-dihydro-3H-2,3-benzodiazepine-3-carboxamide] | 40 | 250
CNC(=O)N1N=C(c2ccc(N3CCOCC3=O)cc2)c2cc(OC)ccc2C[C@@H]1C [Example 177, (4S)-8-Methoxy-N,4-dimethyl-1-[4-(3-oxomorpholin-4-yl)phenyl]-4,5-dihydro-3H-2,3-benzodiazepine-3-carboxamide] | 70 | 490
CNC(=O)N1N=C(c2ccc(N3CCC(OC)CC3)cc2)c2cc(OC)c(OC)cc2C[C@@H]1C [Example 179.2, (4S)-7,8-dimethoxy-1-[4-(4-methoxypiperidin-1-yl)phenyl]-N,4-dimethyl-4,5-dihydro-3H-2,3-benzodiazepine-3-carboxamide] | 40 | 80
CNC(=O)N1N=C(c2ccc(N3CCC(N(C)C)CC3)cc2)c2cc(OC)c(OC)cc2C[C@H]1C [Example 180.1, (4R)-1-{4-[4-(dimethylamino)piperidin-1-yl]phenyl}-7,8-dimethoxy-N,4-dimethyl-4,5-dihydro-3H-2,3-benzodiazepine-3-carboxamide] | 390 | 2700
CNC(=O)N1N=C(c2ccc(N3CCC(N(C)C)CC3)cc2)c2cc(OC)c(OC)cc2C[C@@H]1C [Example 180.2, (4S)-1-{4-[4-(dimethylamino)piperidin-1-yl]phenyl}-7,8-dimethoxy-N,4-dimethyl-4,5-dihydro-3H-2,3-benzodiazepine-3-carboxamide] | 60 | 50
CNC(=O)N1N=C(c2ccc(N3CC(C)(O)C3)cc2)c2cc(OC)c(OC)cc2C[C@@H]1C [Example 185.2, (4S)-1-[4-(3-hydroxy-3-methylazetidin-1-yl)phenyl]-7,8-dimethoxy-N,4-dimethyl-4,5-dihydro-3H-2,3-benzodiazepine-3-carboxamide] | 30 | 100
CNC(=O)N1N=C(c2ccc(N3CCC(C)(O)CC3)cc2)c2cc(OC)c(OC)cc2C[C@H]1C [Example 188.1, (4R)-1-[4-(4-hydroxy-4-methylpiperidin-1-yl)phenyl]-7,8-dimethoxy-N,4-dimethyl-4,5-dihydro-3H-2,3-benzodiazepine-3-carboxamide] | 270 | 1130
CNC(=O)N1N=C(c2ccc(N3CCC(C)(O)CC3)cc2)c2cc(OC)c(OC)cc2C[C@@H]1C [Example 188.2, (4S)-1-[4-(4-hydroxy-4-methylpiperidin-1-yl)phenyl]-7,8-dimethoxy-N,4-dimethyl-4,5-dihydro-3H-2,3-benzodiazepine-3-carboxamide] | 30 | 70
CC[C@H]1Cc2cc(OC)c(OC)cc2C(c2ccc(N3CCN(C)CC3)cc2)=NN1C(=O)NC [Example 201.1, (4S)-4-ethyl-7,8-dimethoxy-N-methyl-1-[4-(4-methylpiperazin-1-yl)phenyl]-4,5-dihydro-3H-2,3-benzodiazepine-3-carboxamide] | 710 | 1990
CC[C@H]1Cc2cc(OC)c(OC)cc2C(c2ccc(N3CCNCC3)cc2)=NN1C(=O)NC [Example 202.1, (4S)-4-ethyl-7,8-dimethoxy-N-methyl-1-[4-(piperazin-1-yl)phenyl]-4,5-dihydro-3H-2,3-benzodiazepine-3-carboxamide] | 640 | 580
CC[C@H]1Cc2cc(OC)c(OC)cc2C(c2ccc(N3CCN(S(C)(=O)=O)CC3)cc2)=NN1C(=O)NC [Example 203.1, (4S)-4-ethyl-7,8-dimethoxy-N-methyl-1-{4-[4-(methylsulphonyl)piperazin-1-yl]phenyl}-4,5-dihydro-3H-2,3-benzodiazepine-3-carboxamide] | 260 | 1270
CC[C@H]1Cc2cc(OC)c(OC)cc2C(c2ccc(N3CCOCC3)cc2)=NN1C(=O)NC [Example 209, (4S)-4-ethyl-7,8-dimethoxy-N-methyl-1-[4-(morpholin-4-yl)phenyl]-4,5-dihydro-3H-2,3-benzodiazepine-3-carboxamide] | 370 | 190
CNC(=O)N1N=C(c2ccc(N3CCCN(C)CC3=O)cc2)c2cc(OC)c(OC)cc2C[C@@H]1C [Example 229, (4S)-7,8-dimethoxy-N,4-dimethyl-1-[4-(4-methyl-2-oxo-1,4-diazepan-1-yl)phenyl]-4,5-dihydro-3H-2,3-benzodiazepine-3-carboxamide] | 70 | 140
CNC(=O)N1N=C(c2ccc(-c3c(C)nn(C)c3C)cc2)c2cc(OC(F)(F)F)ccc2C[C@@H]1C [Example 249.1, (4S)-N,4-dimethyl-8-(trifluoromethoxy)-1-[4-(1,3,5-trimethyl-1H-pyrazol-4-yl)phenyl]-4,5-dihydro-3H-2,3-benzodiazepine-3-carboxamide] | 20 | 60
CNC(=O)N1N=C(c2ccc(N3CCN(C)CC3)c(Br)c2)c2cc(OC)c(OC)cc2C[C@@H]1C [Example 253, (4S)-1-[3-Bromo-4-(4-methylpiperazin-1-yl)phenyl]-7,8-dimethoxy-N,4-dimethyl-4,5-dihydro-3H-2,3-benzodiazepine-3-carboxamide] | 40 | 60
CNC(=O)N1N=C(c2ccc(N3CCN(C)CC3)c(C#N)c2)c2cc(OC)c(OC)cc2C[C@@H]1C [Example 254, (4S)-1-[3-Cyano-4-(4-methylpiperazin-1-yl)phenyl]-7,8-dimethoxy-N,4-dimethyl-4,5-dihydro-3H-2,3-benzodiazepine-3-carboxamide] | 110 | 170
